PubChem BioAssay (NCI)
Where “and” joins values, the source holds several entries; their conditions need not be identical. Equal entries are not always repeated.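 Exposure lasted 48 hours, with cells grown in 96-well plates and compounds tested at five concentrations. The concentration for 50% growth inhibition is given as GI50. At the TGI there is no net growth.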

How the values were obtained:
Experiment in all cases: NCI-60 cell line screen, 48 h
[1] = system: CAKI-1 renal
[2] = system: HS 578T breast
[3] = system: ACHN renal
[4] = system: NCI-H460 lung
[5] = system: A498 renal
[6] = system: OVCAR-4 ovarian
[7] = system: EKVX NSCLC
[8] = system: SK-MEL-28 melanoma
[9] = system: HT29 colon
[10] = system: SK-MEL-5 melanoma
[11] = system: IGROV1 ovarian
[12] = system: OVCAR-3 ovarian
[13] = system: COLO 205 colon
[14] = system: UACC-62 melanoma
[15] = system: HCC-2998 colon
[16] = system: SF-268 CNS
[17] = system: HCT-15 colon
[18] = system: UACC-257 melanoma
[19] = system: HOP-62 NSCLC
[20] = system: SF-295 CNS
[21] = system: HOP-92 NSCLC
[22] = system: SW-620 colon
[23] = system: PC-3 prostate
[24] = system: NCI/ADR-RES ovarian
[25] = system: SNB-19 CNS
[26] = system: DU-145 prostate
[27] = system: HCT-116 colon
[28] = system: NCI-H226 lung
[29] = system: 786-0 renal
[30] = system: A549 NSCLC
[31] = system: M14 melanoma
[32] = system: KM12 colon
[33] = system: MDA-N
[34] = system: UO-31 renal
[35] = system: NCI-H23 lung
[36] = system: SN12C renal
[37] = system: CCRF-CEM leukemia
[38] = system: T-47D breast
[39] = system: SR leukemia
[40] = system: MALME-3M melanoma
[41] = system: SNB-75 CNS
[42] = system: RPMI-8226 leukemia
[43] = system: OVCAR-8 ovarian
[44] = system: SK-MEL-2 melanoma
[45] = system: K-562 leukemia
[46] = system: BT-549 breast
[47] = system: HL-60(TB) leukemia
[48] = system: MDA-MB-231 breast
[49] = system: RXF 393 renal
[50] = system: MOLT-4 leukemia
[51] = system: MCF7 breast
[52] = system: NCI-H522 lung
[53] = system: LOX IMVI melanoma
[54] = system: SK-OV-3 ovarian
[55] = system: TK-10 renal
[56] = system: MDA-MB-435
[57] = system: SF-539 CNS
[58] = system: OVCAR-5 ovarian
[59] = system: U251 CNS

## CN(CCCNC(=O)c1cn(C)c2c1ccc1ccccc12)CCCNC(=O)c1cn(C)c2c1ccc1ccccc12
[1]
  TGI: 2.87 µM
[2]
  TGI: 3.19 µM
[3]
  TGI: 3.33 µM
[4]
  TGI: 2.83 µM
[5]
  TGI: 47.9 µM
[6]
  TGI: 27.3 µM
[7]
  TGI: 3.42 µM
[8]
  TGI: 3.67 µM
[9]
  TGI: 2.89 µM
[10]
  TGI: 3.33 µM
[11]
  TGI: 2.31 µM
[12]
  TGI: 2.84 µM
[13]
  TGI: 5.07 µM
[14]
  TGI: 4.68 µM
[15]
  TGI: 2.7 µM
[16]
  TGI: 3.05 µM
[17]
  TGI: 3.38 µM
[18]
  TGI: 3.06 µM
[19]
  TGI: 2.95 µM
[20]
  TGI: 16.8 µM
[21]
  TGI: 3.57 µM
[22]
  TGI: 6.41 µM
[23]
  TGI: 2.83 µM
[24]
  TGI: 3.34 µM
[25]
  TGI: 5.65 µM
[26]
  TGI: 3.08 µM
[27]
  TGI: 3.12 µM
[28]
  TGI: 12 µM
[29]
  TGI: 4.5 µM
[30]
  TGI: 2.62 µM
[31]
  TGI: 2.92 µM
[32]
  TGI: 2.96 µM
[33]
  TGI: 2.76 µM
[34]
  TGI: 2.75 µM
[35]
  TGI: 2.95 µM
[36]
  TGI: 2.71 µM
[37]
  TGI: > 100 µM

## O=c1[nH][nH]c(=O)c2c(O)c(-c3ccccc3)ncc12
[38]
  GI50: 27.6 µM and 60.5 µM
  TGI: 95.5 µM and 843 µM
[1]
  GI50: 83.8 µM and 145 µM
  TGI: 748 µM
[39]
  GI50: 39.6 µM and 118 µM
  TGI: 554 µM
[40]
  GI50: 30.1 µM and 54.4 µM
  TGI: 278 µM
[2]
  GI50: 40.3 µM and 40.2 µM
  TGI: 672 µM
[3]
  GI50: 182 µM
  TGI: 845 µM
[4]
  GI50: 55.6 µM and 146 µM
  TGI: 634 µM
[5]
  GI50: 24.9 µM and 32.2 µM
  TGI: 61.7 µM and 119 µM
[6]
  GI50: 46 µM and 110 µM
  TGI: 630 µM
[41]
  GI50: 35.4 µM and 37.6 µM
  TGI: 353 µM
[7]
  GI50: 228 µM
  TGI: 939 µM
[42]
  GI50: 79.2 µM and 283 µM
  TGI: 706 µM
[43]
  GI50: 37 µM and 64.6 µM
  TGI: 649 µM
[44]
  GI50: 26 µM and 79.1 µM
  TGI: 67.3 µM and 373 µM
[8]
  GI50: 31.9 µM and 40.4 µM
  TGI: > 1000 µM
[9]
  GI50: 38.4 µM and 177 µM
  TGI: 674 µM
[10]
  GI50: 45.8 µM and 175 µM
  TGI: 357 µM
[11]
  GI50: 247 µM
  TGI: 835 µM
[45]
  GI50: 219 µM
  TGI: > 1000 µM
[12]
  GI50: 27.6 µM and 84 µM
  TGI: 84.2 µM and 468 µM
[13]
  GI50: 41.6 µM and 130 µM
  TGI: 399 µM
[46]
  GI50: 32.9 µM and 47.4 µM
  TGI: 357 µM
[14]
  GI50: 34.2 µM and 73.5 µM
  TGI: 420 µM
[47]
  GI50: 74.4 µM and 174 µM
  TGI: 553 µM
[15]
  GI50: 34.9 µM and 103 µM
  TGI: 642 µM
[48]
  GI50: 37.7 µM and 113 µM
  TGI: 385 µM
[49]
  GI50: 27.8 µM and 44.9 µM
  TGI: 62 µM and 187 µM
[16]
  GI50: 35 µM and 71.3 µM
  TGI: > 1000 µM
[17]
  GI50: 57.5 µM and 185 µM
  TGI: > 1000 µM
[50]
  GI50: 35 µM and 173 µM
  TGI: > 1000 µM
[51]
  GI50: 47 µM and 199 µM
  TGI: > 1000 µM
[18]
  GI50: 46.2 µM and 272 µM
  TGI: 871 µM
[52]
  GI50: 42.3 µM and 70.2 µM
  TGI: 376 µM
[19]
  GI50: 27.9 µM and 86.9 µM
  TGI: 87.3 µM and 471 µM
[20]
  GI50: 40.7 µM and 69.3 µM
  TGI: 800 µM
[53]
  GI50: 38.9 µM and 123 µM
  TGI: 442 µM
[21]
  GI50: 30.4 µM and 50.1 µM
  TGI: 91.2 µM and 277 µM
[22]
  GI50: 45.8 µM and 188 µM
  TGI: 891 µM
[54]
  GI50: 27.8 µM and 120 µM
  TGI: 93.3 µM and 488 µM
[23]
  GI50: 44.5 µM and 143 µM
  TGI: 662 µM
[24]
  GI50: 36.7 µM and 73.2 µM
  TGI: 586 µM
[55]
  GI50: 57 µM and 153 µM
  TGI: 462 µM
[25]
  GI50: 47.6 µM and 71.6 µM
  TGI: 841 µM
[56]
  GI50: 44.1 µM and 205 µM
  TGI: > 1000 µM
[57]
  GI50: 32.6 µM
  TGI: 95.1 µM
[26]
  GI50: 58.5 µM and 144 µM
  TGI: > 1000 µM
[27]
  GI50: 55 µM and 132 µM
  TGI: 405 µM
[28]
  GI50: 25.2 µM and 135 µM
  TGI: 52.6 µM and 463 µM
[29]
  GI50: 19.4 µM and 26.7 µM
  TGI: 42.1 µM and 90.4 µM
[30]
  GI50: 57.7 µM and 325 µM
  TGI: 807 µM
[31]
  GI50: 32.8 µM and 63.3 µM
  TGI: 385 µM
[32]
  GI50: 34.2 µM and 53.1 µM
  TGI: 482 µM
[58]
  GI50: 60 µM and 160 µM
  TGI: 832 µM
[34]
  GI50: 37.4 µM and 129 µM
  TGI: 622 µM
[35]
  GI50: 75.9 µM and 194 µM
  TGI: 827 µM
[36]
  GI50: 62.6 µM and 160 µM
  TGI: 623 µM
[37]
  GI50: 35.2 µM and 55.1 µM
  TGI: 894 µM
[59]
  GI50: 31.4 µM and 48.8 µM
  TGI: 79.8 µM and 405 µM

## O=C1NC(c2cccc3ccccc23)Nc2ccccc21 (configuration not stated)
[1]
  GI50: 0.0282 µM
  TGI: 1.82 µM
[39]
  GI50: 0.0106 µM
[40]
  GI50: 0.0263 µM
  TGI: 43.7 µM
[2]
  TGI: 92.2 µM
[3]
  GI50: 0.0383 µM
  TGI: > 54.7 µM
[4]
  GI50: 0.0405 µM
  TGI: 0.73 µM and 4.89 µM
[5]
  TGI: 0.0848 µM
[6]
  GI50: 0.166 µM
  TGI: > 100 µM
[41]
  TGI: 35.9 µM
[7]
  GI50: 0.0278 µM
  TGI: > 100 µM
[42]
  TGI: 0.493 µM and 1.05 µM
[43]
  GI50: 0.0783 µM
  TGI: 12 µM
[44]
  TGI: 7.5 µM and > 20.2 µM
[8]
  TGI: > 100 µM
[9]
  GI50: 0.0256 µM and 0.0306 µM
  TGI: 1.14 µM and 0.203 µM
[10]
  GI50: 0.00988 µM
[11]
  GI50: 0.0636 µM
  TGI: > 100 µM
[45]
  GI50: 0.00758 µM
[12]
  GI50: 0.0215 µM
  TGI: 0.0568 µM and 0.0442 µM
[13]
  GI50: 0.027 µM
  TGI: 0.0954 µM
[46]
  TGI: > 100 µM
[14]
  TGI: > 100 µM
[47]
  GI50: 0.00675 µM
  TGI: 0.0391 µM and 0.0342 µM
[15]
  GI50: 0.173 µM
  TGI: 0.743 µM and 0.489 µM
[48]
  TGI: 3.03 µM
[16]
  GI50: 0.0485 µM
  TGI: > 100 µM
[17]
  TGI: 2.28 µM and 2.17 µM
[50]
  GI50: 0.0443 µM
[51]
  GI50: 0.284 µM
  TGI: 2.56 µM
[18]
  TGI: 32.6 µM
[52]
  GI50: 0.0194 µM and 0.0497 µM
  TGI: 0.0765 µM and 0.25 µM
[19]
  GI50: 0.0317 µM
  TGI: 29.6 µM
[20]
  GI50: 0.0592 µM
  TGI: 0.894 µM
[53]
  GI50: 0.0389 µM
  TGI: > 96.7 µM
[22]
  GI50: 0.0203 µM
  TGI: > 56.6 µM
[54]
  GI50: 0.0316 µM
  TGI: 0.252 µM
[23]
  GI50: 0.0263 µM
  TGI: 0.213 µM
[24]
  TGI: 0.0707 µM and 0.0715 µM
[55]
  GI50: 0.0545 µM
  TGI: > 68 µM
[25]
  GI50: 0.0554 µM
  TGI: > 100 µM
[56]
  TGI: 0.0068 µM
[57]
  GI50: 0.0105 µM
  TGI: 0.0329 µM and 0.165 µM
[26]
  GI50: 0.046 µM
  TGI: 8.11 µM
[28]
  GI50: 0.0238 µM
[29]
  GI50: 0.0254 µM
  TGI: > 100 µM
[30]
  GI50: 0.0582 µM
  TGI: > 100 µM
[31]
  GI50: 0.0177 µM
  TGI: 0.672 µM
[32]
  TGI: 5.91 µM and 10.4 µM
[33]
  TGI: 0.00629 µM and 0.0586 µM
[58]
  TGI: > 65.3 µM
[34]
  GI50: 0.0362 µM
  TGI: > 100 µM
[35]
  GI50: 0.0262 µM
  TGI: 24.8 µM
[36]
  GI50: 0.0198 µM
  TGI: > 100 µM
[37]
  GI50: 0.0296 µM
  TGI: 0.538 µM
[59]
  GI50: 0.0259 µM
  TGI: 0.3 µM and 0.83 µM
